These results are taken from article PMC6271933, “Evaluation of the Toxicity of 5-Aryl-2-Aminoimidazole-Based Biofilm Inhibitors against Eukaryotic Cell Lines, Bone Cells and the Nematode Caenorhabditis elegans” (Molecules, 2014).

Each structure is given as a SMILES string. Where “and” joins values, the source holds several entries; their conditions need not be identical. Equal entries are not always repeated.

Data set [1] has as its system human T-lymphocyte (CEM). Nature of the data set: Cytostatic activity against tumor cell lines (cell number by Coulter counter). It counts as cell-based. The following applies: 72 h, concentration inhibiting cell proliferation by 50%, three days incubation, mean of three repeats. How it is done:
(§1) The IC50 was defined as the compound concentration required to inhibit cell proliferation by 50%. The therapeutic index (TI) was calculated as the ratio of the compound concentration producing toxicity (IC50) to the concentration needed to exert the desired ‘therapeutic’ effect on biofilms of Salmonella and Pseudomonas, indicated by the BIC50 (dose needed to prevent biofilm formation by 50%). The higher the therapeutic index, the broader the safety window of the compound.
(§2) Murine leukemia (L1210), human T-lymphocyte (CEM) and human cervix carcinoma (HeLa) were suspended at 300,000–500,000 cells/mL of culture medium, and 100 µL of a cell suspension was added to 100 µL of an appropriate dilution of the test compounds in 200 µL-wells of 96-well microtiter plates. After incubation at 37 °C for two (L1210), three (CEM) or four (HeLa) days, the cell number was determined using a Coulter counter. The IC50 was defined as the compound concentration required to inhibit cell proliferation by 50%.

Data set [2] concerns human cervix carcinoma (HeLa). The data set is described as above. The following applies: 96 h, concentration inhibiting cell proliferation by 50%, four days incubation, mean of three repeats. The data set is classed as cell-based. How it is done:
as §1, §2

The test system of data set [3] is murine leukemia (L1210). The description is as above. The data set is classed as cell-based. The following applies: Mus musculus, L1210, 48 h; concentration inhibiting cell proliferation by 50%; two days incubation; mean of three repeats. How it is done: as §1, §2
In data set [4] the test system is C. elegans. It counts as in vivo, Caenorhabditis elegans. The following applies: for C. elegans % survival at 25 µM: after 7 days relative to viability at day 0, mean of at least two repeats. How it is done: Eggs of a double mutant (glp-4Dsek-1D) of C. elegans were grown on NGM/OP50 agar plates (NGM agar plates on the surface inoculated with 100 µL of an overnight culture of OP50 Escherichia coli and stored at 4 °C until use) at 25 °C until all nematodes had reached the L4 stage. Worms were collected and washed with M9 buffer (3 g/L KH2PO4, 6 g/L Na2HPO4, 5 g/L NaCl, 1 mM MgSO4). For toxicity testing, 40 to 50 worms were suspended in 250 μL M9 (supplemented with 10 µg/mL cholesterol, 75 µg/mL ampicillin and 100 µg/mL kanamycin) buffer in each well of 24-well microtiter plates, in the presence or absence (0.5% DMSO control) of 25, 100 or 200 µM of the test compounds and grown for 7 days at 25 °C. The percentage survival of the worms in the presence or absence of anti-biofilm compounds was calculated after 7 days relative to their viability at day 0.

For data set [5], the system named is S. Typhimurium biofilm. The following applies: concentration preventing biofilm formation (at 25 °C) by 50%; as previously reported ref 13, 14, 15, 16; read-out: BIC50 S. Typhimurium; cited from earlier work.
For data set [6], the system named is P. aeruginosa biofilm. The following applies: concentration preventing biofilm formation (at 25 °C) by 50%; as previously reported ref 13, 14, 15, 16; read-out: BIC50 P. aeruginosa; cited from earlier work.
Data set [7] has as its system HMO2, HepG2, HeLa and mouse lymphoma cells. More on the design: method as in PMID 12193030, PMID 15165143, PMID 17822294. The following applies: including HMO2, HepG2, HeLa and mouse lymphoma cells; cited from earlier work.
In data set [8] the test system is human bone marrow-derived mesenchymal stem cells (MSC). Nature of the data set: Cytotoxicity against bone cells, trypan blue staining. It counts as cell-based. How it is done:
(§3) The cytotoxicity of the compounds was measured on cell cultures of two cell types represented in bone tissue, namely human osteoblasts (OB) and human bone marrow-derived mesenchymal stem cells (MSC). These tests were conducted according to ISO 10993-5 cytotoxicity standard. The cells were seeded in a 96-well plate at a density of 5000 cells/cm^2 in cell culture media (Advanced DMEM, 10% FBS, 1× GlutaMAX, 0.05 mg/mL gentamicin) and allowed to attach overnight. […]
(§4) Trypan blue staining: the medium was removed from the wells, and 1/3 trypan blue in DMEM medium was added to the cells, incubated for 3 min, after which trypan blue was removed and DMEM medium was added to the wells. In each of four wells, two microscopy fields were counted for viable (transparent) and dead (blue) cells.

Data set [9] deals with human osteoblasts (OB). The description is as above. It counts as cell-based. How it is done: as §3, §4
For data set [10], the system named is human bone marrow-derived mesenchymal stem cells (MSC). Nature of the data set: Metabolic activity of bone cells, MTT staining. To be noted: 12.5 µM, 6 days exposure, MTT staining (results not shown). It counts as cell-based. How it is done:
(§5) The cytotoxicity of the compounds was measured on cell cultures of two cell types represented in bone tissue, namely human osteoblasts (OB) and human bone marrow-derived mesenchymal stem cells (MSC). These tests were conducted according to ISO 10993-5 cytotoxicity standard. The cells were seeded in a 96-well plate at a density of 5000 cells/cm^2 in cell culture media (Advanced DMEM, 10% FBS, 1× GlutaMAX, 0.05 mg/mL gentamicin) and allowed to attach overnight. The next day the test compounds (12.5 μM) and controls were added to the cells (negative controls were cell culture medium and cell culture medium with 0.5% DMSO background, positive control was 0.05% phenol to show a cytotoxic effect) and incubated for 2h, 48h and 6 days and at each time-point the numbers of viable and dead cells were determined by trypan blue staining, and the metabolic activity was determined with MTT staining.
(§6) MTT: the medium was removed from the wells and 100 μL of medium, supplemented with 10% serum and 0.5 mg/mL MTT was added to the cells. The cells were incubated overnight at 37 °C and 5% CO2. The next day the medium with MTT was removed and 100 μL acidic isopropanol was added. The cells were then centrifuged at 2300 g and 50 μL of the supernatant was transferred to a new 96-well plate. The absorbance was measured at 570 nm and the background was measured at 660 nm. Four wells per condition were examined.

Data set [11] concerns human osteoblasts (OB). Nature of the data set: Metabolic activity of bone cells, MTT staining. The data set is classed as cell-based. To be noted: 12.5 µM, 6 days exposure, MTT staining (results not shown). How it is done: as §5, §6
Data set [12] has as its system mesenchymal stem cells (MSC). Nature of the data set: Calcium assay for osteogenic differentiation potential. The data set is classed as cell-based, human. To be noted: 12.5 µM, 5 weeks (Figure 6) or 3 weeks (methods) of exposure. How it is done: (§7) MSC and OB were cultured in osteogenic medium for 3 and 5 weeks, respectively. The experimental groups included a positive solvent control (osteogenic medium with 0.5% DMSO background), a negative control (medium without osteogenic supplements) and treated samples (osteogenic medium, 0.5% DMSO background and 12.5 µM of test compound). Cell cultures were extracted by 5% trichloroacetic acid (500 μL per sample). O-Cresolphtalein complex was added (Calcium CPC LiquiColor Test®; Stanbio Laboratory, Boerne, TX, USA), and the calcium content was determined spectrophotometrically at 550 nm.
(§8) To determine the DNA content, cells were washed with PBS, and 200 μL of digestion buffer (10 mM Tris, 1 mM EDTA, 0.1% Triton X-100, 0.1 mg/mL proteinase K) was added. Samples were incubated in digestion buffer overnight at 56 °C. The supernatants were drawn off and PicoGreen® dye (Molecular Probes, Eugene, OR, USA) was added to the samples in 1:1 ratio and read in a fluorescent plate reader (excitation 485 nm and emission 528 nm). DNA values were used to normalize the calcium content. Four wells per condition were examined, and two samples from each well were taken for each assay.

The test system of data set [13] is osteoblasts (OB). The description is as above. It counts as cell-based, human. The following applies: 12.5 µM, 3 weeks (Figure 6) or 5 weeks (methods) of exposure. How it is done: as §7, §8
[14] abbreviates: 12.5 µM, after 48h and after 6 days of exposure, trypan blue.
Setting [15] is: 12.5 µM, 48h exposure, trypan blue.

Take `Brc1ccc(-c2cnc(NCCCn3cc(C4CCCCC4)nn3)[nH]2)cc1` [compound 39]: the IC50 is 396 µM in [1]; 22.5 µM in data set [2]; 20.7 µM in [3]; 8.4 µM in data set [5]; ~12.5 µM and 12.5 µM in data set [6]. Moreover, the “C. elegans % survival at 25 µM” value in data set [4] was 99.3%.
`COc1ccc(Cc2nc(N)n(C)c2Cc2ccc(O)c(OC)c2)cc1` [2g, naamine F]: the “cytotoxicity to a variety of cell lines” value in data set [7] is given as “cytotoxic”.
`Brc1ccc(-c2cnc(NCCCn3cc(C4CC4)nn3)[nH]2)cc1` [compound 40]: the IC50 is 33.6 µM in data set [1]; 67.1 µM in data set [2]; 43.9 µM in data set [3]; 2 µM in [5]; 72 µM and 71.6 µM in data set [6]. Further, the “C. elegans % survival at 25 µM” value in data set [4] amounted to 82.6%. Further, the “effect on C. elegans survival at 100 µM” value in data set [4] (7 days of exposure) was “none of the compounds significantly affect”. In addition, the “effect on C. elegans survival at 200 µM” value in data set [4] (200 µM, 7 days of exposure) is given as “do not significantly affect survival”. In addition, the “effect on proliferation and viability” value in data set [8] (setting [14]) and in [9] (setting [14]) was “do not or only slightly reduce” throughout. Moreover, the “survival of cells after 4 weeks of exposure” value in data set [8] (4 weeks of exposure) and in data set [9] (4 weeks of exposure) was “allow survival” throughout. Moreover, the “effect on metabolic activity” value in data set [10] and in [11] was “slightly enhance” throughout. Moreover, the “calcium deposition compared to the solvent control (osteogenic differentiation potential)” value in [12] and in data set [13] was “none of the compounds does negatively affect” in each case.
Turning to `COc1ccc(Cc2nc(N)n(C)c2Cc2cc(O)c(OC)c(O)c2)cc1` [2f, naamine E], in [7], the “cytotoxicity to a variety of cell lines” value was “cytotoxic”.
`COc1ccc(Cc2nc(N)n(C)c2Cc2cc(O)c(OC)c(OC)c2)cc1` [2e, naamine C]: in data set [7], the “cytotoxicity to a variety of cell lines” value was “cytotoxic”.
As to `CCCCCCCCn1c(-c2ccccc2)cnc1N` [compound 6], the IC50 is 468 µM in data set [1]; 3 µM in data set [2]; 3.2 µM in data set [3]; 11.9 µM in data set [5]; 18.5 µM in data set [6]. Moreover, in data set [4], the “C. elegans % survival at 25 µM” value is given as 92.5%.
As to `Nc1ncc(-c2ccc(Br)cc2)[nH]1` [compound 5, 5-(p-bromophenyl)-2-aminoimidazole], the IC50 in data set [1] is 13.9 µM; in data set [2] it was 21.8 µM; in data set [3], 10.1 µM; in data set [5] it was 47.9 µM; in data set [6], 3.2 µM. In [4], the “C. elegans % survival at 25 µM” value is given as 90.6%.
Turning to `CCCCCCCCn1c(-c2ccc(Cl)cc2)cnc1N` [compound 7], the IC50 in data set [1] is 357 µM; in [2], 4.5 µM; in data set [3] it was 3.9 µM; in [5], 5.9 µM; in [6] it was 4 µM. Moreover, in [4], the “C. elegans % survival at 25 µM” value was 86.6%. In addition, in [4] (7 days of exposure), the “effect on C. elegans survival at 100 µM” value is given as “none of the compounds significantly affect”. The “inhibition of C. elegans survival at 200 µM” value in data set [4] (200 µM, 7 days of exposure) is “more than 50%”. The “reduction of proliferation as compared to the solvent control” value in data set [8] (setting [15]) and in data set [9] (setting [15]) was more than 70% each time. Also, the “reduction of viability as compared to the solvent control” value in data set [8] (setting [15]) and in data set [9] (setting [15]) was more than 70% each time. In addition, the “reduction of metabolic activity as compared to the untreated controls” value in [10] and in data set [11] was more than 80% throughout.
Take `COc1ccc(Cc2[nH]/c(=N\C3=NC(=O)N(C)C3=O)n(C)c2Cc2cc(OC)c(O)c(OC)c2)cc1` [2k, naamidine H]: in data set [7], the “cytotoxicity to a variety of cell lines” value is “cytotoxic”.
Turning to `Clc1ccc(-c2cnc(NC3CCCC3)[nH]2)cc1` [compound 24], the IC50 is 591 µM in [1]; 28.8 µM in data set [2]; 35.5 µM in data set [3]; 4.4 µM in [5]; 13.5 µM in data set [6]. The “C. elegans % survival at 25 µM” value in [4] is 100.1%.
For the compound `C/N=C1N=C(/N=c2\[nH]c(Cc3ccc(OC)cc3)c(Cc3cc(OC)c(O)c(OC)c3)n2C)C(=O)N\1C` [2l, naamidine I], the “cytotoxicity to a variety of cell lines” value in [7] was “cytotoxic”.
As to `c1ccc(-c2cn(CCCNc3ncc(-c4ccccc4)[nH]3)nn2)cc1` [compound 36], the IC50 in data set [1] is 453 µM; in data set [2], 72.9 µM; in data set [3], 221 µM; in data set [5] it was 36.5 µM; in data set [6], more than 400 µM. Further, the “C. elegans % survival at 25 µM” value in data set [4] came out at 87.7%.
Regarding `COc1ccc(Cc2[nH]c(=N)n(C)c2Cc2cc(OC)c(O)c(OC)c2)cc1` [2h, naamine G], the “cytotoxicity to a variety of cell lines” value in data set [7] is given as “cytotoxic”.
Regarding `COc1ccc(Cn2cc(Cc3ccc(OC)c(OC)c3)nc2/N=C2/NC(=O)N(C)C2=O)cc1` [2i, isonaamidine E], the “cytotoxicity to a variety of cell lines” value in [7] was “cytotoxic”.
